From paper PMC6345968, “Structural basis for species-selective targeting of Hsp90 in a pathogenic fungus” (Nature Communications, 2019)
Like-named read-outs stand apart in the source and are kept apart here. Blank lines part the entries; values can stand above or below the compound they belong to.

Columns and labels:
[1] = biological target: T1, Hsp90 in C. albicans (SC5314) lysate (Candida albicans, UniProt P46598); experiment: biochemical; assay type: binding; conditions: for Ratio re. GdA: EC50 relative to GdA; for Ratio re. GdA / FP signal (raw) / FP signal relative to 0 nM / FP signal / EC50: SC5314 lysate; for FP signal: raw; for EC50: not normalized, oxime panel experiment 220817, read-out: EC50
T1 construct: endogenous in cells; host or cells: C. albicans SC5314 whole-cell lysate

Hsp90 in HEPG2 lysate = conditions: for FP signal (raw) / FP signal / EC50: HepG2 lysate; for FP signal: raw; for EC50: oxime panel experiment 220817
[2] = ratio of GdA-normalized EC50s, human over fungal lysate
[3] = ratio of GdA-relative EC50 ratios, HepG2 over SC5314
[4] = EC50 / EC50 of GdA in HepG2 lysate
[5] = EC50 relative to GdA, HEPG2 lysate
[6] = HEPG2 lysate, log concentration 0.137354 (1.372 nM)
[7] = HEPG2 lysate, log concentration 0.61437 (4.115 nM)
[8] = HEPG2 lysate, log concentration 1.09153 (12.346 nM)
[9] = HEPG2 lysate, log concentration 1.56864 (37.037 nM)
[10] = HEPG2 lysate, log concentration 2.04576 (111.111 nM)
[11] = HEPG2 lysate, log concentration 2.52288 (333.333 nM)
[12] = HEPG2 lysate, log concentration 3 (1000 nM)
[13] = HEPG2 lysate, log concentration 3.47712 (3000 nM)
[14] = HEPG2 lysate, log concentration -0.340084 (0.457 nM)

T1 sequence (P46598 whole entry): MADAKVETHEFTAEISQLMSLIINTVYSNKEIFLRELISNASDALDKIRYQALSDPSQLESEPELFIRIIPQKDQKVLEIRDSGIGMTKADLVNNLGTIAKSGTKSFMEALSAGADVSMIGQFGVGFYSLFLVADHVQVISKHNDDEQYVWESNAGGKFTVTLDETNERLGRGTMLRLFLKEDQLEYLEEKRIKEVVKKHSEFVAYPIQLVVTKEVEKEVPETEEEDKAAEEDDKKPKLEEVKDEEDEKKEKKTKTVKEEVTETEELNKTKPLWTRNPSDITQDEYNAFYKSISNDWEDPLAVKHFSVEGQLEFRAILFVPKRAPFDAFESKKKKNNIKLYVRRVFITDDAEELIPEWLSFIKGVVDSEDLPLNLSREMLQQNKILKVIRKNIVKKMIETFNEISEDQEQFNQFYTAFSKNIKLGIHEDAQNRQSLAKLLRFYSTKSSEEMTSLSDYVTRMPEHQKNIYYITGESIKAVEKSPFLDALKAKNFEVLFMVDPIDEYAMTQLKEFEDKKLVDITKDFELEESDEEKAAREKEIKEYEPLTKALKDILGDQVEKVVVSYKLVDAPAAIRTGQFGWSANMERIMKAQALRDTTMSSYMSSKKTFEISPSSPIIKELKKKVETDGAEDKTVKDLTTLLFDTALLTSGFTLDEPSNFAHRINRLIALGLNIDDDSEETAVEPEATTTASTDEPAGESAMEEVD

SMILES: CCON=C1/C=C/C=C\[C@H]2O[C@H]2C[C@@H](C)OC(=O)c2c(O)cc(O)c(Cl)c2C1 [compound 333]
Ratio re. GdA [1]: 0.3152
FP signal (raw) ([1]; 0.457 nM): 168
FP signal relative to 0 nM ([1]; 0.457 nM compound): 0.8317
FP signal ([1]; 0.457 nM compound): 168
FP signal (raw) ([1]; 1.372 nM): 155
FP signal relative to 0 nM ([1]; 1.372 nM compound): 0.7673
FP signal ([1]; 1.372 nM compound): 155
FP signal (raw) ([1]; 4.115 nM): 114
FP signal relative to 0 nM ([1]; 4.115 nM compound): 0.5644
FP signal ([1]; 4.115 nM compound): 114
FP signal (raw) ([1]; 12.346 nM): 81
FP signal relative to 0 nM ([1]; 12.346 nM compound): 0.401
FP signal ([1]; 12.346 nM compound): 81
FP signal (raw) ([1]; 37.037 nM): 58
FP signal relative to 0 nM ([1]; 37.037 nM compound): 0.2871
FP signal ([1]; 37.037 nM compound): 58
FP signal (raw) ([1]; 111.111 nM): 39
FP signal relative to 0 nM ([1]; 111.111 nM compound): 0.1931
FP signal ([1]; 111.111 nM compound): 39
FP signal (raw) ([1]; 333.333 nM): 35
FP signal relative to 0 nM ([1]; 333.333 nM compound): 0.1733
FP signal ([1]; 333.333 nM compound): 35
FP signal (raw) ([1]; 1000 nM): 36
FP signal relative to 0 nM ([1]; 1000 nM compound): 0.1782
FP signal ([1]; 1000 nM compound): 36
FP signal (raw) ([1]; 3000 nM): 35
FP signal relative to 0 nM ([1]; 3000 nM compound): 0.1733
FP signal ([1]; 3000 nM compound): 35
EC50 [1]: 0.00536 µM
HepG2/SC5314 [1, 2]: 1.134
HepG2/SC5314 [1, 3]: 1.134
Ratio rel. GdA (HepG2) (Hsp90 in HEPG2 lysate; [4]): 0.3573
Ratio rel. GdA (HepG2) (Hsp90 in HEPG2 lysate; [5]): 0.3573
FP signal, Fxn Control (Hsp90 in HEPG2 lysate; [6]): 0.9198
FP signal, Fxn Control (Hsp90 in HEPG2 lysate; [7]): 0.7075
FP signal, Fxn Control (Hsp90 in HEPG2 lysate; [8]): 0.5047
FP signal, Fxn Control (Hsp90 in HEPG2 lysate; [9]): 0.3066
FP signal, Fxn Control (Hsp90 in HEPG2 lysate; [10]): 0.2075
FP signal, Fxn Control (Hsp90 in HEPG2 lysate; [11]): 0.1651
FP signal, Fxn Control (Hsp90 in HEPG2 lysate; [12]): 0.184
FP signal, Fxn Control (Hsp90 in HEPG2 lysate; [13]): 0.2028
FP signal, Fxn Control (Hsp90 in HEPG2 lysate; [14]): 0.9575
FP signal (raw) (Hsp90 in HEPG2 lysate; 0.457 nM): 203
FP signal (Hsp90 in HEPG2 lysate; 0.457 nM compound): 203
FP signal (raw) (Hsp90 in HEPG2 lysate; 1.372 nM): 195
FP signal (Hsp90 in HEPG2 lysate; 1.372 nM compound): 195
FP signal (raw) (Hsp90 in HEPG2 lysate; 4.115 nM): 150
FP signal (Hsp90 in HEPG2 lysate; 4.115 nM compound): 150
FP signal (raw) (Hsp90 in HEPG2 lysate; 12.346 nM): 107
FP signal (Hsp90 in HEPG2 lysate; 12.346 nM compound): 107
FP signal (raw) (Hsp90 in HEPG2 lysate; 37.037 nM): 65
FP signal (Hsp90 in HEPG2 lysate; 37.037 nM compound): 65
FP signal (raw) (Hsp90 in HEPG2 lysate; 111.111 nM): 44
FP signal (Hsp90 in HEPG2 lysate; 111.111 nM compound): 44
FP signal (raw) (Hsp90 in HEPG2 lysate; 333.333 nM): 35
FP signal (Hsp90 in HEPG2 lysate; 333.333 nM compound): 35
FP signal (raw) (Hsp90 in HEPG2 lysate; 1000 nM): 39
FP signal (Hsp90 in HEPG2 lysate; 1000 nM compound): 39
FP signal (raw) (Hsp90 in HEPG2 lysate; 3000 nM): 43
FP signal (Hsp90 in HEPG2 lysate; 3000 nM compound): 43
EC50 (Hsp90 in HEPG2 lysate): 0.00793 µM

Ratio re. GdA [1]: 23.0159
FP signal (raw) ([1]; 0.457 nM): 197
FP signal relative to 0 nM ([1]; 0.457 nM compound): 0.9426
FP signal ([1]; 0.457 nM compound): 197
FP signal (raw) ([1]; 1.372 nM): 194
FP signal relative to 0 nM ([1]; 1.372 nM compound): 0.9282
FP signal ([1]; 1.372 nM compound): 194
FP signal (raw) ([1]; 4.115 nM): 198
FP signal relative to 0 nM ([1]; 4.115 nM compound): 0.9474
FP signal ([1]; 4.115 nM compound): 198
FP signal (raw) ([1]; 12.346 nM): 197
FP signal relative to 0 nM ([1]; 12.346 nM compound): 0.9426
FP signal ([1]; 12.346 nM compound): 197
FP signal (raw) ([1]; 37.037 nM): 192
FP signal relative to 0 nM ([1]; 37.037 nM compound): 0.9187
FP signal ([1]; 37.037 nM compound): 192
FP signal (raw) ([1]; 111.111 nM): 183
FP signal relative to 0 nM ([1]; 111.111 nM compound): 0.8756
FP signal ([1]; 111.111 nM compound): 183
FP signal (raw) ([1]; 333.333 nM): 134
FP signal relative to 0 nM ([1]; 333.333 nM compound): 0.6411
FP signal ([1]; 333.333 nM compound): 134
FP signal (raw) ([1]; 1000 nM): 42
FP signal relative to 0 nM ([1]; 1000 nM compound): 0.201
FP signal ([1]; 1000 nM compound): 42
FP signal (raw) ([1]; 3000 nM): 38
FP signal relative to 0 nM ([1]; 3000 nM compound): 0.1818
FP signal ([1]; 3000 nM compound): 38
EC50 [1]: 0.392 µM
HepG2/SC5314 [1, 2]: 0.6913
HepG2/SC5314 [1, 3]: 0.6913
EC50 (Hsp90 in HEPG2 lysate): 0.353 µM
SMILES: CC1CC2OC2C=CC=CC(=NOCc2ccccc2)Cc2c(Cl)c(O)cc(O)c2C(=O)O1 (mixture of isomers) [compound 217]
Ratio rel. GdA (HepG2) (Hsp90 in HEPG2 lysate; [4]): 15.9107
Ratio rel. GdA (HepG2) (Hsp90 in HEPG2 lysate; [5]): 15.9107
FP signal, Fxn Control (Hsp90 in HEPG2 lysate; [6]): 0.9806
FP signal, Fxn Control (Hsp90 in HEPG2 lysate; [7]): 0.9951
FP signal, Fxn Control (Hsp90 in HEPG2 lysate; [8]): 0.9951
FP signal, Fxn Control (Hsp90 in HEPG2 lysate; [9]): 0.9612
FP signal, Fxn Control (Hsp90 in HEPG2 lysate; [10]): 0.8592
FP signal, Fxn Control (Hsp90 in HEPG2 lysate; [11]): 0.6117
FP signal, Fxn Control (Hsp90 in HEPG2 lysate; [12]): 0.2524
FP signal, Fxn Control (Hsp90 in HEPG2 lysate; [13]): 0.1893
FP signal, Fxn Control (Hsp90 in HEPG2 lysate; [14]): 1.005
FP signal (raw) (Hsp90 in HEPG2 lysate; 0.457 nM): 207
FP signal (Hsp90 in HEPG2 lysate; 0.457 nM compound): 207
FP signal (raw) (Hsp90 in HEPG2 lysate; 1.372 nM): 202
FP signal (Hsp90 in HEPG2 lysate; 1.372 nM compound): 202
FP signal (raw) (Hsp90 in HEPG2 lysate; 4.115 nM): 205
FP signal (Hsp90 in HEPG2 lysate; 4.115 nM compound): 205
FP signal (raw) (Hsp90 in HEPG2 lysate; 12.346 nM): 205
FP signal (Hsp90 in HEPG2 lysate; 12.346 nM compound): 205
FP signal (raw) (Hsp90 in HEPG2 lysate; 37.037 nM): 198
FP signal (Hsp90 in HEPG2 lysate; 37.037 nM compound): 198
FP signal (raw) (Hsp90 in HEPG2 lysate; 111.111 nM): 177
FP signal (Hsp90 in HEPG2 lysate; 111.111 nM compound): 177
FP signal (raw) (Hsp90 in HEPG2 lysate; 333.333 nM): 126
FP signal (Hsp90 in HEPG2 lysate; 333.333 nM compound): 126
FP signal (raw) (Hsp90 in HEPG2 lysate; 1000 nM): 52
FP signal (Hsp90 in HEPG2 lysate; 1000 nM compound): 52
FP signal (raw) (Hsp90 in HEPG2 lysate; 3000 nM): 39
FP signal (Hsp90 in HEPG2 lysate; 3000 nM compound): 39
